Test results taken from patent publication US8841325B2, “Immunomodulatory compounds for the restoration of vitamin D sensitivity in vitamin D resistant tumor cells” (Celgene Corporation, priority 2009, dated 2014).

Assays:
Format in all cases: cell-based
[1] = system: MDA-MB-231 cells; experiment: Cell viability by neutral red assay, MDA-MB-231; details: for effect on cell viability: up to 6 days
Method: Cells were seeded in 24 wells plates at a density of 10^4 cells per well and allowed to adhere for 24 hours. […] The drug was renewed every 2 days. Cell viability was then determined by neutral red assay, measuring absorbance at 550 nm.
After 6 days treatment, cells were seeded into 24 well plates at a density of 1×10^4 cells/wells. After 24 h, cells were treated with reagents or vehicle for up to six days. At the end of the incubation period, medium was removed and cells were incubated with neutral red solution (40 μg/ml in phenol red and serum free DMEM) for 2 h at 37° C. After removal of the neutral red solution, wells were rinsed once with 1 ml 4% formal saline containing 0.5% CaCl2. Plates were inverted on paper towel to drain and 200 μl of elution fluid (1% acetic acid in 50% ethanol) was added. Following incubation at room temperature for 30 min with gentle shaking, absorbance at 550 nm was determined
To accomplish this, cells were treated for up to 6 days with different concentrations of a BCL-2 inhibitor, ABT-263 ([…]). Non-treated cells were used as a control. After 6 days of treatment, cell viability was measured by neutral red assay (FIG. 16). In the three cell lines, BCL-2 inhibition leads to cell death. The IC50 is almost equivalent in all cell lines (1 μM+/−0.2 μM).
More particularly, FIG. 16 illustrates the effects of BCL-2 inhibition on MCF-7VD^R and HBL-100 viability. MDA-MB-231, MCF-7/VD^R and HBL-100 cells were treated for up to 6 days with different concentrations of ABT-263 (0.2 up to 20 μM). Non-treated cells were used as a control. After 6 days of treatment, cell viability was measured by neutral red assay. Results are mean of three independent experiments (each made in quadruplicate).

[2] = system: MCF-12A cells; experiment: Cell growth by Sulphorhodamine B (SRB) assay, MCF-12A; details: for effect on cell growth: single agent, Thalidomide 0.01-100 μM, CC-4047 and lenalidomide 0.001-10 μM, FIG. 6B
Method: (§1) Cells were seeded in 24 wells plates at a density of 10^4 cells per well and allowed to adhere for 24 hours. […] Each treatment was carried out for up to 7 days, but renewed every 2 days. Cell growth was then determined by Sulphorhodamine B (SRB) assay, measuring absorbance at 550 nm.
(§2) After 6 days treatment, cells were seeded in 24 well plates at a density of 1×10^4 cells/well. After 24 h cells were treated with reagents or vehicle for up to six days. Cells were treated for up to 6 days with log doses of Thalidomide (0.1 μM up to 100 μM), pomalidomide and lenalidomide (0 μM up to 10 μM). At the end of each experiment, cells were fixed to the bottom of the well by addition of ice-cold 50% w/v trichloroacetic acid (TCA) to give a final concentration of 10% TCA. Plates were incubated at 4° C. for 30 minutes and then washed with distilled water. Plates were allowed to air-dry at room temperature before staining with 0.4% w/v SRB in 1% v/v acetic acid and incubated for 15 minutes on a shaker. The plates were then extensively washed with 1% acetic acid to remove unbound dye and were again allowed to air-dry at room temperature. Incorporated dye was solubilised with 200 μl […] Tris base. 100 μl aliquots were transferred to a 96 well plate and absorbance at 550 nm was determined

[3] = system: MCF-7 cells; experiment: Cell growth by Sulphorhodamine B (SRB) assay, MCF-7; details: for effect on cell growth: single agent, Thalidomide 0.01-100 μM, CC-4047 and lenalidomide 0.001-10 μM, FIG. 6B
Method: as §1, §2

[4] = system: MDA-MB-231 cells; experiment: Cell growth by Sulphorhodamine B (SRB) assay, MDA-MB-231
Method: Cells were seeded in 24 wells plates at a density of 10^4 cells per well and allowed to adhere for 24 hours. To determine the combination effects of the drugs, cells were treated with 100 nM 1,25 D3 and 10 nM 1-oxo-2-(2,6-dioxopiperidin-3-yl)-4-aminoisoindoline or 1,3-dioxo-2-(2,6-dioxopiperidin-3-3-yl)-4-aminoisoindoline. Each treatment was carried out for up to 7 days, but renewed every 2 days. Cell growth was then determined by Sulphorhodamine B (SRB) assay, measuring absorbance at 550 nm.
Cells were seeded in 24 wells plates at a density of 10^4 cells per wekk and allowed to adhere for 24 hours. To determine the combination effects of the drugs, cells were treated with 100 nM 1,25 D3 and varying doses of 1-oxo-2-(2,6-dioxopiperidin-3-yl)-4-aminoisoindoline or 1,3-dioxo-2-(2,6-dioxopiperidin-3-yl)-4-aminoisoindoline. Each treatment was carried out for up to 7 days, but renewed every 2 days. Cell growth was then determined by Sulphorhodamine B (SRB) assay, measuring absorbance at 550 nm.
as §2

[5] = system: MDA-MB-231 cells; experiment: Annexin V/PI staining analysed by FACS; details: for necrosis and apoptosis activation (propidium iodide and Annexin V staining): 1 μM lenalidomide or 100 nM 1,25-D3 alone; for necrosis and apoptosis activation (propidium iodide and Annexin V staining) / apoptosis assessed by Annexin V or PI staining: up to 6 days; for apoptosis assessed by Annexin V or PI staining: single agent: 1 nM compound or 100 nM 1,25 D3 alone
Method: Cells were seeded into 6 well plates at a density of 2×10^6 cells/well. Cells were treated with 1 μl/mL DMSO (control) or 1 nM 1-oxo-2-(2,6-dioxopiperidin-3-yl)-4-aminoisoindoline and 100 nM 1,25 D3, each alone or in combination for up to 6 days. Medium was removed by EDTA treatment, and cells were washed twice with ice-cold PBS. Cells were then resuspended into the buffer at a dilution of 1×10^6 cells/mL. 10^5 cells were then stained with Annexin V and Propidium Iodide (“PI”). Staining was analyzed by FACS. Results were expressed as the percentage of control Annexin V or PI staining where the control was cells treated with DMSO only. Results were from triplicate wells.
To assess the nature of MDA-MB-231 cell death (apoptosis or necrosis) induced by co-treatment of lenalidomide/1, 25-D3 cells were seeded into 25 cm2 flasks at a density of 2×10^6 cells/flask. […] Medium was removed by EDTA treatment and cells were washed twice with ice-cold PBS. Cells were then resuspended into the buffer at a dilution of 1×10^6 cells/ml. 10^5 cells were then stained with Annexin V and Iodure Propidium. Staining was analysed by FACS.
Cells were also treated with 0.1% DMSO as a control. […] Cells treated with 0.1% DMSO were used as a control (day 0). Cell lysates were probed for cleaved-PARP(C-PARP) and total PARP (T-PARP). Data shown are representative of three identical experiments.

[6] = 100 nM 1,25-D3 alone, up to 6 days, FIG. 7B
[7] = 1,25 D3 alone, read-out: dose giving IC50 inhibition
[8] = up to 6 days, listed as lenalidomide

Row | SMILES | effect on cell viability ([1]; 100 nM 1,25-D3 or 1 μM IMiD alone) | sensitivity of cell viability to vitamin D agent treatment ([1]; 1,25 D3 0-100 nM, 7 days, FIG. 1) | inhibition of growth [2, 6] [%] | IC50 [2, 7] [nM] | inhibition of growth [3, 6] [%] | IC50 [3, 7] [nM] | effect on cell growth ([4]; 100 nM 1,25-D3 or 1 μM IMiD alone, up to 6 days) | necrosis and apoptosis activation (propidium iodide and Annexin V staining) ([5]; FIG. 8B) | apoptosis assessed by Annexin V or PI staining ([5]; FIG. 5) | effect on cell viability ([1]; single agent, Thalidomide 0.01-100 μM, CC-4047 and lenalidomide 0.001-10 μM, FIG. 6A) | effect on cell growth ([2]; up to 6 days) | effect on cell growth [2, 8] | effect on cell growth ([3]; up to 6 days) | effect on cell growth [3, 8] | inhibition at 10 µM ([4]; Homo sapiens, MDA-MB-231, 144 h, single agent, 10 μM lenalidomide (highest dose), up to 6 days) [%] | minimal concentration giving statistically significant inhibition of growth ([4]; in the presence of 100 nM 1,25 D3, up to 7 days, FIG. 3) [µM] | inhibition of growth ([4]; single agent, 10 μM lenalidomide (highest dose), up to 6 days) [%] | apoptosis assessed by Annexin V and PI staining ([5]; 1 nM compound in combination with 100 nM 1,25 D3, up to 6 days, FIG. 5) | Annexin V staining ([5]; 1 μM lenalidomide co-treatment with 100 nM 1,25-D3, up to 6 days, FIG. 8B)
1 | C=C1/C(=C\C=C2/CCC[C@]3(C)[C@@H]([C@H](C)CCCC(C)(C)O)CC[C@@H]23)C[C@@H](O)C[C@@H]1O [1,25-D3, 1α,25-dihydroxyvitamin D3] | no effect | resistant | 55 | 100 | 30 | 100 | no effect | no effects | no significant increase in apoptosis |  |  |  |  |  |  |  |  |  | 
2 | Nc1cccc2c1CN(C1CCC(=O)NC1=O)C2=O (stereo not drawn) [Lenalidomide, 1-oxo-2-(2,6-dioxopiperidin-3-yl)-4-aminoisoindoline] |  |  |  |  |  |  |  | no effects | no significant increase in apoptosis | do not Affect | do not Affect | no effect | do not Affect | no effect | 28 | 1 | 20 | significant increase in apoptosis | Annexin V staining was observed
